Settings: 0.9 mg/mL in neat DMSO; 40° C.; six weeks; N=3
Protocol: Sample solutions (N=3) were prepared by solubilizing the lyophilized powder directly in neat DMSO to a concentration of 0.9 mg/mL pramlintide acetate. To test formulation stability in the polar aprotic solvent, the samples (N=3) were stored in sealed glass vials at 40° C. for six weeks.

In the case of Pramlintide acetate, the “appearance of sample solutions after storage” value is reported as “clear and absent of precipitation and visible aggregates”.

— patent publication US20170007675A1, “STABLE PEPTIDE FORMULATIONS AND METHODS FOR PREPARATION” (XERIS PHARMACEUTICALS, INC., priority 2014, published 2017)
